Key:
DRN 5-HT neurons = experiment: Reversal by acute prucalopride of the inhibition of DRN 5-HT neuron firing rate induced by i.v. SSRIs; assay type: in vivo, rat
Description: FIGS. 6A and 6B illustrate the effect of prucalopride on the inhibition of 5-HT neuronal firing rate induced by SSRIs fluxoamine and citalopram.
In FIGS. 6A and 6B, the firing activity of the 5-HT neuron is suppressed following the acute intravenous administration of the antidepressant SSRIs fluvoxamine and citalopram. This suppression of the firing activity is due to the activation of the 5-HT1A autoreceptors, subsequent to the increase of the concentration of endogenous 5-HT, following the blockade of the 5-HT reuptake sites.

[1] = system: hippocampal CA3 pyramidal neurons; experiment: Acute i.v. prucalopride on firing of hippocampal CA3 pyramidal neurons, with microiontophoresis; assay type: in vivo, rat; conditions: prucalopride 1000 μg/kg i.v.
Experimental: FIGS. 9A to 9D. FIGS. 9A and 9C show a typical example (integrated firing rate histogram) of the response of a single hippocampal pyramidal neuron of the CA3 sub-field to an acute, intravenous administration of the selective 5-HT4 agonist prucalopride (1000 μg/kg), and its reversal by local, microiontophoretic application of the selective 5-HT1A antagonist WAY 100635 (A), or systemic injection of the selective 5-HT4 antagonist GR 125487 (1000 μg/kg, i.v.) (C). Single-cell extracellular recordings were performed in the CA3 region of chloral-hydrate anaesthetized rats by using multiple-barrel glass microelectrodes, combined with microiontophoretic pumps (with the central barrel used for recordings). Pyramidal neurons were identified according to the classical criteria (see Example 5, experimental procedures). FIGS. 9B and 9D show a summary of the effects as for FIGS. 9A and 9C, respectively. Bar histograms represent the mean (S.E.M.) percentage effect, calculated for each neuron with respect to its basal firing rate (i.e. 100% value), and the number in each column represents the number of neurons tested. *p<0.05 vs basal value, one-way ANOVA.
Microiontophoresis and extracellular recordings from hippocampal CA3 pyramidal neurons. Recording and microiontophoresis were performed with five-barreled glass micropipettes broken back to 8-12 μm under microscope control. The central barrel was filled with the same solution as in the DRN and was used for extracellular unitary recordings. Pyramidal neurons were identified by their large amplitude (0.5-1.2 mV) and long-duration (0.8-1.2 ms) simple spikes alternating with complex spike discharges (Kandel and Spencer, 1961). The side barrels contained the following solutions: quisqualate (1.5 mM in 200 mM NaCl, pH 8), WAY 100635 (15 mM in 200 mM NaCl, pH 4), and 2 M NaCl used for automatic current balancing. Rats were mounted in the stereotaxic apparatus and the micropipettes were lowered at 4.2 mm lateral and 4.2 anterior to lambda into the CA3 sub-region of the dorsal hippocampus.
Involvement of endogenous 5-HT and hippocampal 5-HT1A receptors in the effect of 5-HT4 agonists. […] This interpretation is consistent with our own previous findings, showing that both acute and chronic (3-day) administration of the same compounds augment DRN 5-HT neuronal firing activity (Lucas and Debonnel, 2002; Lucas et al., 2005). It is also in keeping with observations from a single in vivo microdialysis study, where acute systemic injection of preferential 5-HT4 agonists increased hippocampal 5-HT efflux (Ge and Barnes, 1996). To further address this possibility, two additional series of experiments were conducted. First, the role of endogenous 5-HT was assessed by using the same protocol as above, in rats co-treated with RS 67333 (or its vehicle) and the 5-HT depleter para-chlorophenylalanine (pCPA). […] The ejection currents of quisqualate needed to activate CA3 pyramidal neurons were, in this case, similar to those used in controls (0 to −2 nA, FIG. 8C). We then tested the ability of a local application of WAY 100635, directly into the CA3 subfield through the use of microiontophoresis, to modify the effect of a 5-HT4 agonist. We chose not to use the previous protocol (i.e. chronic treatments), because, as shown above, the required quisqualate currents differ between the experimental groups. Even though all currents were balanced, it was not possible to exclude the possibility that the amount of quisqualate present in the vicinity of the electrode may have an influence on the quantity of WAY 100635 actually ejected, and/or on its ability to act on pyramidal neurons. For this reason, prucalopride was used acutely in naïve rats, at a dose known to induce a significant augmentation of DRN 5-HT neuronal activity (1000 μg/kg, i.v.) (Lucas and Debonnel, 2002). […]

[2] = Horizontal locomotion in activity chambers; conditions: i.p. 30 min before testing; prucalopride 2.5 mg/kg, RS 67333 1.5 mg/kg
Experimental: All data are expressed as mean±S.E.M. of eight animals per group, and are from an observation of 4 min duration. Rats experienced a pre-test session (15 min) 24 h before the test session. The 5-HT4 agonists were administered 30 min before the test session. […] Data are expressed as mean±S.E.M. of eight animals per group, and are from an observation of 10 min duration. The 5-HT4 agonists were administered 30 min before testing. *p<0.05, **p<0.01 vs the vehicle, Dunnett's test;
Thirty min after drug administration, rats were placed in activity cages in whom photoelectric cells were inserted allowing recordings of locomotor activity, i.e. quantification of the total number of activity counts (photocell beam breaks) during 10 min. session.

COCCCN1CCC(NC(=O)c2cc(Cl)c(N)c3c2OCC3)CC1 [prucalopride]
share of 5-HT neurons in which the suppression is reversed (DRN 5-HT neurons; acute prucalopride): about one-half
effect of prucalopride on SSRI-induced suppression of 5-HT neuron firing (DRN 5-HT neurons; acute prucalopride after fluvoxamine or citalopram i.v.): partially reverse
inhibition at 1 mg/kg ([1]; Rattus norvegicus, Pyramidal neuron, iv, Discussion): ~50%
discharge of inhibited CA3 pyramidal neurons ([1]; naïve rats, the 17 inhibited neurons): 46 (±5.6) % of pre-drug values
share of recorded pyramidal neurons inhibited ([1]; 17 of 38 neurons): 45 % of total
effect on rat locomotion (activity counts, 10 min) [2]: 78%

From patent US20090170899A1, “Stimulators of 5-HT4 receptors and uses thereof” (priority 2004, published 2009)
